Several values for one entry are separate records, joined by “and”; a condition that tells them apart may be missing. Identical values can stand only once.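 All cell lines were grown in 96-well plates and treated with compound for 48 hours. Here, GI50 denotes the concentration required for 50% inhibition of growth. The concentration for full growth arrest is given as TGI.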
Key:
Experiment in all cases: DTP human tumour cell line panel, 48 h
UO-31 renal = system: UO-31 renal
NCI-H226 lung = system: NCI-H226 lung
TK-10 renal = system: TK-10 renal
OVCAR-5 ovarian = system: OVCAR-5 ovarian
SW-620 colon = system: SW-620 colon
SK-OV-3 ovarian = system: SK-OV-3 ovarian
HCT-116 colon = system: HCT-116 colon
MOLT-4 leukemia = system: MOLT-4 leukemia
OVCAR-4 ovarian = system: OVCAR-4 ovarian
IGROV1 ovarian = system: IGROV1 ovarian

Structure (SMILES)	TGI (UO-31 renal)	TGI (NCI-H226 lung)	TGI (TK-10 renal)	TGI (OVCAR-5 ovarian)	TGI (SW-620 colon)	TGI (SK-OV-3 ovarian)	TGI (HCT-116 colon)	TGI (MOLT-4 leukemia)	TGI (OVCAR-4 ovarian)	TGI (IGROV1 ovarian)	GI50 (UO-31 renal)	GI50 (NCI-H226 lung)	GI50 (SK-OV-3 ovarian)	GI50 (TK-10 renal)	GI50 (OVCAR-5 ovarian)	GI50 (MOLT-4 leukemia)	GI50 (SW-620 colon)	GI50 (OVCAR-4 ovarian)	GI50 (IGROV1 ovarian)	GI50 (HCT-116 colon)
CC1(Cc2ccccc2)NC(=S)NC1=O (stereo not drawn)	> 100 µM	> 100 µM	> 100 µM	> 100 µM	> 100 µM															
CC(=O)OC1COC(n2c(=S)n(-c3ccccc3)c(=O)c3cc(Br)ccc32)C(OC(C)=O)C1OC(C)=O (stereo not drawn)	> 100 µM	> 100 µM		> 100 µM	> 100 µM	> 100 µM	> 100 µM	> 100 µM	31.6 µM	> 100 µM										
COc1ccc(/C=C2/CCc3cc4ccc(OC)cc4[o+]c32)c(O)c1	8.04 µM	25.7 µM	24.6 µM	40.3 µM	5.09 µM	25.3 µM		> 100 µM	20.6 µM	27.6 µM	2.39 µM	12.3 µM	12.3 µM	11.7 µM	17.2 µM	3.71 µM	2.23 µM	5.45 µM	2.71 µM	
Cc1cc2c(Br)cc(Br)c(O)c2nc1C(=O)c1ccccc1	> 82.1 µM	> 79.2 µM	> 100 µM	> 68.5 µM	> 100 µM		> 72.8 µM	> 100 µM	> 100 µM	> 100 µM										
O=c1ncccn1C1C=C(CO)C(O)C1O (stereo not drawn)	> 50 µM	> 50 µM	> 50 µM	> 50 µM	> 50 µM	> 50 µM		> 50 µM	> 50 µM											
CCOC(=O)C(=O)Nc1ccccc1C(F)(F)F	> 100 µM	> 100 µM	> 100 µM	> 100 µM	> 100 µM	> 100 µM	> 100 µM		> 100 µM	> 100 µM										
O=c1c(Cl)c(Cl)cnn1CCc1ccncc1	36.2 µM	84.1 µM	> 100 µM	33.6 µM	41.2 µM		30.7 µM	> 100 µM	33 µM	33.8 µM										
COc1ccc(-c2nnc(N3CCN(C(=O)CN4CCN(c5ccc(OC)cc5)CC4)CC3)nc2-c2ccc(OC)cc2)cc1	39.7 µM	34.5 µM	62.5 µM	53.1 µM		45 µM	3.11 µM	3.8 µM	12.5 µM	> 78.6 µM	12.5 µM	5.53 µM	20.8 µM	19 µM	27.6 µM	1.63 µM		3.47 µM	6.7 µM	1.71 µM
CNC(=O)c1cc2c(Oc3ccc(NC(=O)C4(C(=O)Nc5ccc(F)cc5)CC4)cc3)ccnc2cc1OC	6.25 µM	10.7 µM		> 100 µM	> 100 µM	9.33 µM	14.2 µM	8.18 µM	> 100 µM	8.96 µM	1.78 µM	2.47 µM	2.94 µM		3.17 µM	2.23 µM	2.64 µM	3.55 µM	2.32 µM	3.23 µM
CCN(CC)CC(=O)N1CCc2c([nH]c3ccccc23)C1c1cccnc1 (stereo not drawn)	> 100 µM		> 100 µM	> 100 µM	> 100 µM	> 100 µM	> 100 µM	> 100 µM	> 100 µM	> 100 µM										
CNC(SC)=C1C(=O)OC(C)(C)OC1=O	> 100 µM	> 100 µM	> 100 µM	> 100 µM	38.5 µM	> 100 µM	> 100 µM	> 100 µM		> 100 µM										
C=CCSc1nc2ccccc2c(=O)n1Cc1ccco1	> 100 µM	> 100 µM	> 100 µM	> 100 µM	> 100 µM	> 100 µM	> 100 µM		> 100 µM	> 100 µM										
CCC1=C[C@@H]2CN(C1)Cc1c([nH]c3ccccc13)[C@@](C(=O)OC)(c1cc3c(cc1OC)N(C)[C@H]1[C@@](O)(C(=O)OC)[C@H](OC(C)=O)[C@]4(CC)[C@@H]5C[C@@H]5CN5CC[C@]31[C@@H]54)C2	7.7 µM and 12.6 µM	6.57 µM		16.9 µM and 73.9 µM	9.16 µM and 21 µM		5.18 µM and 13 µM		10.7 µM	6.87 µM and 14.5 µM		0.0191 µM	< 0.005 µM			< 0.005 µM	< 0.005 µM	< 0.005 µM		< 0.005 µM
C=CCC1[C@@H](C(C)(C)C(C(C)=O)C(=O)C(=O)OC)OC(C(C)(C)C)N1C(=O)OC (stereo partly drawn)	> 100 µM	> 100 µM	> 100 µM	> 100 µM		> 100 µM	> 100 µM	70.9 µM	> 100 µM											
COc1cc2cnc3c4ccccc4ccc3c2cc1OC	> 100 µM		> 100 µM	> 100 µM	> 100 µM	> 100 µM		> 100 µM	> 100 µM	> 100 µM										
CC(=O)N[C@H](C(=O)N[C@@H](CCCNC(=N)N)C(=O)N[C@@H](CCCCN)C(=O)N[C@@H](CCCNC(=N)N)C(=O)N[C@]1(C)CCCCCC/C=C\CCC[C@@](C)(C(=O)N[C@@H](CCCNC(=N)N)C(=O)N[C@@H](CCC(=O)O)C(=O)N[C@@H](CC(C)C)C(=O)N[C@H](C(=O)N[C@@H](CCC(=O)O)C(N)=O)C(C)C)NC(=O)[C@H](CCC(N)=O)NC(=O)[C@H](CC(C)C)NC(=O)[C@H](CC(C)C)NC(=O)[C@H](CCCNC(=N)N)NC(=O)[C@H](CCCNC(=N)N)NC(=O)[C@H](CC(C)C)NC1=O)C(C)C	47.1 µM	28.7 µM	8.8 µM	41.2 µM	20.2 µM	27.7 µM	37.6 µM	29.4 µM	8.02 µM		11.1 µM	2.43 µM	3.72 µM	1.6 µM	11.5 µM	8.1 µM	7.84 µM	1.57 µM		12 µM
O=C(c1ccc2ccccc2c1)c1c(C(F)(F)F)n([O-])c2ccc(Cl)cc2[n+]1=O	2.55 µM	3.56 µM	3.35 µM	3.58 µM	2.7 µM	3.13 µM	2.33 µM		2.72 µM	1.06 µM	1.29 µM	1.82 µM	1.75 µM	1.81 µM	1.87 µM		1.41 µM	1.39 µM	0.334 µM	1 µM
CSc1c(C)c(C)nn1-c1ccccc1	> 100 µM		> 100 µM	> 100 µM	> 100 µM	> 100 µM		> 100 µM	> 100 µM	> 100 µM										
